Calls of active or inactive are those of the source. No cut-off for these calls is given here.
How the values were obtained:
[1] = biological target: T1, Probable G-protein coupled receptor 142 (Homo sapiens, UniProt Q7Z601); assay: Agonist activity at human GPR142 expressed in HEK293 cells assessed as inositol phosphate accumulation after 1 hr by scintillation counting; assay type: functional, cell-based
T1 sequence (Q7Z601 whole entry): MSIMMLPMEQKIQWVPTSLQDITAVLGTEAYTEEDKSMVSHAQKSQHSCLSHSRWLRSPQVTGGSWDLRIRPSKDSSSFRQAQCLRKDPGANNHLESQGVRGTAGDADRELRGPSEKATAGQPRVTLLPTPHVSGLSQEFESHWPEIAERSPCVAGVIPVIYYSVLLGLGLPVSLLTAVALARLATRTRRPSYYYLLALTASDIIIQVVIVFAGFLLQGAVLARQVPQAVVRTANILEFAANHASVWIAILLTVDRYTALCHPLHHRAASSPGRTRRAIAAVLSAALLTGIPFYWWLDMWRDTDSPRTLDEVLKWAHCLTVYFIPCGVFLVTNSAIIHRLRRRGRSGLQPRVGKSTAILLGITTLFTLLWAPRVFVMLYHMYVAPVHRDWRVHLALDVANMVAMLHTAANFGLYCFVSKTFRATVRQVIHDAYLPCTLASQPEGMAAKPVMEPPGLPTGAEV

[2] = biological target: T2, Probable G-protein coupled receptor 142 (Homo sapiens) (UniProt Q7Z601); assay: Agonist activity at human GPR142 expressed in HEK293 cells assessed as inositol phosphate accumulation at 10 uM after 1 hr by scintillation counting; assay type: functional, cell-based
T2 sequence (whole entry): T1 sequence (Q7Z601 whole entry)

[3] = Metabolic stability of rat microsomes assessed as compound turnover at 1 uM after 30 mins by LC-MS analysis; assay type: ADME, Microsome; details: read-out: Drug metabolism
[4] = Metabolic stability of human microsomes assessed as compound turnover at 1 uM after 30 mins by LC-MS analysis; assay type: ADME, Microsome; details: read-out: Drug metabolism
[5] = biological target: T2, Probable G-protein coupled receptor 142 (Homo sapiens); assay: Agonist activity at human GPR142 expressed in HEK293 cells assessed as inositol phosphate accumulation after 1 hr by scintillation counting in presence of 100% serum; assay type: functional, cell-based
[6] = Oral bioavailability in rat at 2 mg/kg; assay type: ADME, organism-based; details: in vivo
[7] = Clearance in rat at 0.5 mg/kg, iv; assay type: ADME, organism-based; set-up: dose 0.5 mg/kg, route intravenous; details: in vivo

EC50 [1]	Emax [2]	metabolised at 0.5 h, 1 µM [3]	metabolised at 0.5 h, 1 µM [4]	Activity [5]	bioavailability [6]	clearance [7]	Structure (SMILES)
1320 nM	76%	100%	100%	–	–	–	O=C(Nc1cc(-c2ccncc2)c[nH]c1=O)[C@H](Cc1ccccc1)NCCc1ccccn1
220 nM	107%	99%	100%	–	–	–	C[C@H](N[C@@H](Cc1ccccc1)C(=O)Nc1cc(-c2ccncc2)c[nH]c1=O)c1ccccn1
730 nM	81%	95%	85%	–	–	–	CCC(N[C@@H](Cc1ccccc1)C(=O)Nc1cc(-c2ccncc2)c[nH]c1=O)c1ccccn1 (mixture of isomers)
390 nM	78%	98%	83%	–	–	–	O=C(Nc1cc(-c2ccncc2)c[nH]c1=O)[C@H](Cc1ccccc1)NC[C@H]1CCCO1
20000 nM	91%	58%	21%	–	–	–	O=C(Nc1cc(-c2ccncc2)c[nH]c1=O)[C@H](Cc1ccccc1)NCC1CCS(=O)(=O)CC1
930 nM	–	99%	68%	Active	–	–	O=C(Nc1cc(-c2ccncc2)c[nH]c1=O)[C@H](Cc1ccccc1)NCc1cscn1
390 nM	74%	57%	29%	–	32%	40 mL/min/kg	O=C(Nc1nnc(-c2cncs2)s1)[C@H](Cc1ccccc1)NCc1cscn1
200 nM	106%	74%	64%	–	–	–	Cc1nc(C2(N[C@@H](Cc3ccccc3)C(=O)Nc3cc(-c4ccncc4)c[nH]c3=O)CC2)cs1
180 nM	86%	35%	19%	–	19%	28.3 mL/min/kg	Cn1cncc1-c1nnc(NC(=O)[C@H](Cc2ccccc2)NCc2cscn2)s1
210 nM	92%	100%	90%	–	–	–	Cn1ccc(CN[C@@H](Cc2ccccc2)C(=O)Nc2cc(-c3ccncc3)c[nH]c2=O)n1
440 nM	95%	99%	90%	–	–	–	O=C(Nc1cc(-c2ccncc2)c[nH]c1=O)[C@H](Cc1ccccc1)NCc1ncccn1
95 nM	155%	95%	95%	–	–	–	O=C(Nc1cc(-c2ccncc2)c[nH]c1=O)[C@H](Cc1ccccc1)NCc1ccccn1
6000 nM	60%	95%	95%	–	–	–	C[C@@H](N[C@@H](Cc1ccccc1)C(=O)Nc1cc(-c2ccncc2)c[nH]c1=O)c1ccccn1
1060 nM	84%	80%	66%	–	–	–	O=C(Nc1cc(-c2ccncc2)c[nH]c1=O)[C@H](Cc1ccccc1)NCCC1CCOCC1
2200 nM	93%	95%	78%	–	–	–	Cc1cc(CN[C@@H](Cc2ccccc2)C(=O)Nc2cc(-c3ccncc3)c[nH]c2=O)no1
9450 nM	57%	100%	> 95%	–	–	–	CC(C)(N[C@@H](Cc1ccccc1)C(=O)Nc1cc(-c2ccncc2)c[nH]c1=O)c1ccccn1
2230 nM	78%	67%	19%	–	–	–	O=C1CC[C@H](CN[C@@H](Cc2ccccc2)C(=O)Nc2cc(-c3ccncc3)c[nH]c2=O)N1
110 nM	107%	96%	60%	–	–	–	O=C(Nc1cc(-c2ccncc2)c[nH]c1=O)[C@H](Cc1ccccc1)NCc1c[nH]cn1
99 nM	114%	67%	21%	–	–	–	O=C(Nc1cc(-c2ccncc2)c[nH]c1=O)[C@H](Cc1ccccc1)NC1(c2ncccn2)CC1
